One test deals with RS4 B-ALL cells. The test can be described thus: Potency against RS4 B-ALL cells in vitro. The class given is cell-based.
A further test deals with human platelets. Description: Potency against human platelets in vitro. The class given is cell-based. Conditions: Platelet; human platelets in vitro.
For another test, the system named is MOLT-4 T-ALL cells. Description: Potency against MOLT-4 T-ALL cells in vitro. The settings on record: Homo sapiens. The test is classed as cell-based.
The next test concerns BCL-xL/BCL-2. The test can be described thus: Blocking of WH244-induced BCL-xL/BCL-2 degradation in Jurkat cells (immunoblot). The settings on record: for Effect of proteasome / NEDD8-activating enzyme inhibition on WH244-mediated degradation of BCL-xL and BCL-2: Jurkat cells. The class given is cell-based, human. On the procedure: The data are presented as mean ± s.d. from three replicate cell cultures in a representative experiment for Jurkat cells. h Left, WH244 induces polyubiquitination of WT, K22R BCL-2 and to some extent K17R but not K17/22R BCL-2 in 293T cells. 293T cells were co-transfected as indicated with Flag-BCL−2 WT or mutants and HA-tagged ubiquitin (HA-Ub) plasmids. After 36 h, cells were pretreated with MG132 (10 µM) for 2 h and then treated with or without WH244 (1 μM) for 5 h. The Flag-tagged proteins were immunoprecipitated (IP) and immunoblotted with HA or Flag antibody. Right, The input blot for this assay. Data are a representative of two independent experiments. Source data are provided as Source Data file.
A series of experiments were performed to assess the efficacy of WH244. […] These DC50 values were ~6.2 and 6.8-fold better than of 753b for BCL-xL (DC50 of 3.7 nM) and BCL-2 (DC50 of 50 nM), respectively. Also, WH244-mediated proteolysis of BCL-xL and BCL-2 was time-dependent with BCL-xL degrading faster than BCL-2 (Fig. 3c). […]
Cells were collected, washed once with ice-cold phosphate-buffered saline, pH 7.2 (PBS, cat. no. 20012027; Thermo Fisher Scientific) and lysed in RIPA lysis buffer (Cat. No. BP-115DG, Boston Bio Products, Ashland, MA, USA) supplemented with protease and phosphatase inhibitor cocktails (Cat. No. PPC1010, Sigma-Aldrich, St. Louis, MO, USA) through sonication. […] The protein concentration in the supernatants was determined using the Pierce BCA protein Assay kit (cat. no. 23225, Thermo Fisher Scientific). […] The membranes were blocked with non-fat dry milk (5% wt/vol) in 1×Tris- buffered saline-Tween-20 (TBST) for 1 h at room temperature, and were subsequently probed with primary antibodies at a pre-determined optimal concentration in non-fat dry milk (5% wt/vol in TBST) overnight at 4 °C. […] Following sufficient washing with TBST, the membranes were exposed with ECL Western Blotting Substrate (Bio-Rad), and the signal was detected using the ChemiDoc MP Imaging System (Bio-Rad) and quantified using the ImageJ (v1.53a) software from NIH. […]
A general note: In western blotting, separated proteins are transferred to a membrane and probed.

A further test relates to BCL-xL and BCL-2. Further details: method as in Khan S et al. Nat Med, 25: 1938-1947, 2019. The settings on record: ref Khan S et al. Nat Med, 25: 1938-1947, 2019; cited from earlier work.

The structures appear in SMILES notation. Residues, ends and D or L forms follow the SMILES beside them. *: point of attachment. Cbz = O=C(OCc1ccccc1)*

In general, IC50 refers to the point on the concentration scale where inhibition reaches its midpoint. A low value points to greater potency. Regarding `CC1(C)CCC(c2ccc(Cl)cc2)=C(CN2CCN(c3ccc(C(=O)NS(=O)(=O)c4ccc(N[C@H](CCN5CCOCC5)CSc5ccccc5)c(S(=O)(=O)C(F)(F)F)c4)cc3)CC2)C1` [ABT263, Navitoclax], the IC50 amounted to 38 nM in the test with RS4 B-ALL cells, 310 nM in the test on human platelets and 220 nM in the test on MOLT-4 T-ALL cells. Also, the “Effect of pretreatment on degradation of BCL-xL and BCL-2 with WH244” value in the test on BCL-xL/BCL-2 (two hours pretreatment, then six-hour WH244, Jurkat cells) was “completely blocked”.
Take `Cc1ncsc1-c1ccc([C@H](C)NC(=O)[C@@H]2C[C@@H](O)CN2C(=O)[C@@H](NC(=O)CCCCCC(=O)N2CCN(CC[C@H](CSc3ccccc3)Nc3ccc(S(=O)(=O)NC(=O)c4ccc(N5CCN(CC6=C(c7ccc(Cl)cc7)CCC(C)(C)C6)CC5)cc4)cc3S(=O)(=O)C(F)(F)F)CC2)C(C)(C)C)cc1` [DT2216]: the “Reduction in binding affinity to BCL-xL and BCL-2 on converting ABT263 into DT2216” value in the test on BCL-xL and BCL-2 was “about 8 fold”.
Turning to `CC(C)C[C@@H](C=O)NC(=O)[C@H](CC(C)C)NC(=O)[C@H](CC(C)C)NC(=O)OCc1ccccc1` [MG132] (Cbz-Leu-Leu-Leu-aldehyde), in the test with BCL-xL/BCL-2, the “Effect of proteasome / NEDD8-activating enzyme inhibition on WH244-mediated degradation of BCL-xL and BCL-2” value is on record as “abrogated”.
For `NS(=O)(=O)OC[C@@H]1C[C@@H](n2ccc3c(N[C@H]4CCc5ccccc54)ncnc32)C[C@@H]1O` [MLN4924], the “Effect of proteasome / NEDD8-activating enzyme inhibition on WH244-mediated degradation of BCL-xL and BCL-2” value in the test with BCL-xL/BCL-2 was “abrogated”.

(Values after publication PMC10979003, “Development and crystal structures of a potent second-generation dual degrader of BCL-2 and BCL-xL” (Nature Communications, 2024).)
